The source made the active and inactive calls. The calls are words filed in the database; no cut-off is given here.
Columns and labels:
Bacillus subtilis = assay: Antibacterial activity against Bacillus subtilis 168 after 18 hrs by Mueller-Hinton broth microdilution method; format: functional; settings: subsp. subtilis str. 168, 18 h
Pseudomonas aeruginosa = assay: Antibacterial activity against multidrug-resistant Pseudomonas aeruginosa ATCC BAA2108 after 18 hrs by Mueller-Hinton broth microdilution method; format: functional; settings: ATCC BAA2108, 18 h
Escherichia coli [1] = assay: Antibacterial activity against Escherichia coli ATCC […] expressing NDM-1 beta-lactamase after 18 hrs by Mueller-Hinton broth microdilution method; format: functional
Staphylococcus aureus [2] = assay: Antibacterial activity against Staphylococcus aureus ATCC 29213 after 18 hrs by cation adjusted Mueller-Hinton broth microdilution method; format: functional; settings: ATCC 29213, 18 h
[3] = biological target: T1, Cell division protein FtsZ (Staphylococcus aureus) (UniProt P0A031); assay: (§1) Inhibition of recombinant N-terminal His6-tagged Staphylococcus aureus FtzS expressed in Escherichia coli BL21 (DE3) cells assessed as reduction in protein polymer thickness at 8 ug/ml preincubated for 10 mins followed by GTP addition after 15 mins by phosphotungstic acid staining based transmission electron microscopic method
T1 sequence (whole entry): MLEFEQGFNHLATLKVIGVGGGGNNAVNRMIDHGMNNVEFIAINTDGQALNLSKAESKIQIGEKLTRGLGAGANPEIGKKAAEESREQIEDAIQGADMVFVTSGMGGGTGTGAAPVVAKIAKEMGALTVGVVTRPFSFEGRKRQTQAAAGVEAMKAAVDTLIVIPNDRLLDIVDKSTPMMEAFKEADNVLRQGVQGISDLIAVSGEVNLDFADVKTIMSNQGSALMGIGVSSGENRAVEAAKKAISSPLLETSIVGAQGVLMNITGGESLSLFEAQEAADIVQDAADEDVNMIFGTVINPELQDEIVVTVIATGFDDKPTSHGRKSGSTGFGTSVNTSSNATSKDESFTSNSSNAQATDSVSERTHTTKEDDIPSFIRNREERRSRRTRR

Staphylococcus aureus [4] = assay: Antibacterial activity against methicillin-resistant Staphylococcus aureus ATCC BAA41 after 18 hrs by cation adjusted Mueller-Hinton broth microdilution method; format: functional; settings: ATCC BAA41, 18 h
Enterococcus faecium [5] = assay: Antibacterial activity against antibiotic-susceptile Enterococcus faecium ATCC 49624 after 18 hrs by brain heart infusion broth microdilution method; format: functional; settings: ATCC 49624, 18 h
[6] = biological target: T1, Cell division protein FtsZ (Staphylococcus aureus); assay: as §1, with “protofilament bundling” for “polymer thickness”
[7] = biological target: T1, Cell division protein FtsZ (Staphylococcus aureus); assay: Inhibition of recombinant N-terminal His6-tagged Staphylococcus aureus ATCC 29213 FtzS polymerization expressed in Escherichia coli BL21 (DE3) cells at 16 ug/ml in presence of GTP by fluorescence spectrometry method
Escherichia coli [8] = assay: Antibacterial activity against Escherichia coli ATCC 25922 after 18 hrs by Mueller-Hinton broth microdilution method; format: functional; settings: ATCC 25922, 18 h
Enterococcus faecium [9] = assay: Antibacterial activity against vancomycin-resistant Enterococcus faecium ATCC 700221 after 18 hrs by brain heart infusion broth microdilution method; format: functional; settings: ATCC 700221, 18 h
Klebsiella pneumoniae = assay: Antibacterial activity against Klebsiella pneumoniae ATCC BAA2470 expressing NDM-1 beta-lactamase after 18 hrs by Mueller-Hinton broth microdilution method; format: functional; settings: ATCC BAA2470, 18 h
Escherichia coli [10] = assay: Bactericidal activity against Escherichia coli ATCC 25922 assessed as reduction in colony forming units at 4 times MIC concentration after 4 hrs by time kill assay; format: functional
Escherichia coli [11] = assay: Bactericidal activity against Escherichia coli ATCC 25922 assessed as reduction in colony forming units at 1 to 2 times MIC concentration after 24 hrs by time kill assay; format: functional
Staphylococcus aureus [12] = assay: Bactericidal activity against methicillin-resistant Staphylococcus aureus ATCC BAA41 assessed as reduction in colony forming units at MIC concentration after 6 hrs by time kill assay; format: functional
[13] = biological target: T2, Cell division protein FtsZ (Bacillus subtilis (strain 168)) (UniProt P17865); assay: Inhibition of Bacillus subtilis 168 GTPase activity of FtsZ assessed as increase in cell length at 2 ug/ml after 4 hrs by phase-contrast optical microscopic analysis; settings: Bacillus subtilis subsp. subtilis str. 168
T2 sequence (whole entry): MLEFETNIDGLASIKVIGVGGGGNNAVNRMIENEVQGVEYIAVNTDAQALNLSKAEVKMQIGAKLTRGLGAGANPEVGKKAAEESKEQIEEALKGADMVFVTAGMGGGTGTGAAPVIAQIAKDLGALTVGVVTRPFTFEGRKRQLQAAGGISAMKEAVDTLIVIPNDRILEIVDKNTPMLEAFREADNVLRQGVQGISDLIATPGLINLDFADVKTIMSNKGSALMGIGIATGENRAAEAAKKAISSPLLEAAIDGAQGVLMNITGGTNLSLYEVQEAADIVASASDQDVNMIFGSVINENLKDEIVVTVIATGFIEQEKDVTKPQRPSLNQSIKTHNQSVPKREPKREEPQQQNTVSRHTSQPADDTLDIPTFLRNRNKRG

[14] = biological target: T1, Cell division protein FtsZ (Staphylococcus aureus); assay: (§2) Inhibition of recombinant N-terminal His6-tagged Staphylococcus aureus ATCC 29213 FtzS GTPase activity expressed in Escherichia coli BL21 (DE3) cells assessed as reduction in GTP hydrolysis at 16 ug/ml preincubated for 10 mins followed by GTP addition measured after 30 mins by CytoPhos reagent based assay
[15] = biological target: T1, Cell division protein FtsZ (Staphylococcus aureus); assay: Inhibition of recombinant N-terminal His6-tagged Staphylococcus aureus ATCC 29213 FtzS GTPase activity expressed in Escherichia coli BL21 (DE3) cells assessed as reduction in GTP hydrolysis preincubated for 10 mins followed by GTP addition measured after 30 mins by CytoPhos reagent based assay
[16] = biological target: T1, Cell division protein FtsZ (Staphylococcus aureus); assay: Inhibition of recombinant N-terminal His6-tagged Staphylococcus aureus ATCC 29213 FtzS polymerization expressed in Escherichia coli BL21 (DE3) cells in presence of GTP by fluorescence spectrometry method
[17] = biological target: T1, Cell division protein FtsZ (Staphylococcus aureus); assay: as §2, with “4” for “16”
Staphylococcus aureus [18] = assay: Bactericidal activity against methicillin-resistant Staphylococcus aureus ATCC BAA41 assessed as reduction in colony forming units at 1 time MIC concentration after 24 hrs by time kill assay; format: functional
[19] = biological target: T1, Cell division protein FtsZ (Staphylococcus aureus); assay: Inhibition of recombinant N-terminal His6-tagged Staphylococcus aureus ATCC 29213 FtzS GTPase activity expressed in Escherichia coli BL21 (DE3) cells assessed as reduction in GTP hydrolysis at 8 ug/ml preincubated for 10 mins followed by GTP addition after 30 mins by CytoPhos reagent based assay
Staphylococcus aureus [20] = assay: Bactericidal activity against methicillin-resistant Staphylococcus aureus ATCC BAA41 assessed as reduction in colony forming units at 2 times MIC concentration after 6 hrs by time kill assay; format: functional

COc1ccc(Nc2c3ccccc3[n+](C)c3c2oc2ccccc23)cc1.[I-]
MIC (Bacillus subtilis): 4 µg/mL | MIC (Pseudomonas aeruginosa): 64 µg/mL | MIC (Escherichia coli [1]): 8 µg/mL | MIC (Staphylococcus aureus [2]): 4 µg/mL | inhibition [3]: Active | MIC (Staphylococcus aureus [4]): 4 µg/mL | MIC (Enterococcus faecium [5]): 6 µg/mL | inhibition [6]: Active | inhibition [7]: Active | MIC (Escherichia coli [8]): 8 µg/mL | MIC (Enterococcus faecium [9]): 6 µg/mL | MIC (Klebsiella pneumoniae): 64 µg/mL

COc1ccc(Nc2c3ccccc3[n+](C)c3c2[nH]c2ccccc23)cc1.[I-]
MIC (Bacillus subtilis): 2 µg/mL | MIC (Pseudomonas aeruginosa): 48 µg/mL | MIC (Escherichia coli [1]): 6 µg/mL | MIC (Staphylococcus aureus [2]): 2 µg/mL | inhibition [3]: Active | inhibition (Escherichia coli [10]): Active | MIC (Staphylococcus aureus [4]): 2 µg/mL | inhibition (Escherichia coli [11]): Active | Activity (Staphylococcus aureus [12]): 1 ×10² CFU/ml | Activity [13]: Active | MIC (Enterococcus faecium [5]): 4 µg/mL | inhibition [6]: Active | inhibition [7]: Active | inhibition [14]: 60% | inhibition [15]: Dose-dependent effect | MIC (Escherichia coli [8]): 6 µg/mL | inhibition [16]: Dose-dependent effect | inhibition [17]: 20% | Activity (Staphylococcus aureus [18]): 1 ×10³ CFU/ml | inhibition [19]: 50% | MIC (Enterococcus faecium [9]): 4 µg/mL | MIC (Klebsiella pneumoniae): 48 µg/mL | Activity (Staphylococcus aureus [20]): 1 ×10³ CFU/ml

— ChEMBL document CHEMBL4052617, “Antibacterial activity of N-methylbenzofuro[3,2-b]quinoline and N-methylbenzoindolo[3,2-b]-quinoline derivatives and study of their mode of action” (2017)
